# Results published in patent US20250388542A1, “ANALOGUES OF PENTAMIDINE AND USES THEREFOR” (Auransa Inc., priority 2018, published 2025).
# “And” between values parts separate entries of the source, which are not always exact repeats. Equal values may be shown once. “Also recorded” adds a separate entry of the source.
# Assays:
# Hep G2 = test: CellTiter-Glo cytotoxicity, cancer cell line panel; type: cell-based; conditions: Homo sapiens, HepG2; Hep G2, Hepatoblastoma carcinoma
# Description: (§1) The objective of this study is to investigate potential cell killing effect of Compounds 1-15 on 3 cancer cell lines. 50% inhibition concentration (IC50) was determined for these compounds in various cancer cell lines using CellTiter-Glo™ luminescent cell viability assay at different compound concentrations. Each cell line (e.g., NCI-H209; NCI-H69; and SW1271) was treated with Compounds 1-15 and culture medium contains 0.2% [v/v] DMSO vehicle control. All the cells were cultured in the media supplemented with 10-20% fetal bovine serum at 37° C., 5% CO2 and 95% humidity.
# The objective of this study is to investigate the effect of Compound 1 on cytotoxicity against 61 different types of cancer cell lines. IC50 were values were obtained using CellTiter-Glo™ as described above. Each cell line shown in Table 3 was treated with Compound 1, a standard chemotherapy drug, cisplatin, as reference control and culture medium contains 0.2% [v/v] DMSO vehicle control. All cancer cell lines were cultured in media supplemented with 10-20% fetal bovine serum at 37° C., 5% CO2 and 95% humidity.
# [1] = test system: Hep3B2.1-7-Luc liver orthotopic model; test: Liver orthotopic in vivo analysis; conditions: for mean Total Flux: Q3D for a week then QD three weeks, day 28 post grouping; for Whole liver (with tumor) weights: individual animals 1-8; for Tumor sizes vs vehicle: nonparametric ANOVA followed by Kruskal-Wallis test; for Tumor sizes (signal intensity) vs vehicle: two-way ANOVA and Bonferroni post-test
# Description: In this study, the in vivo therapeutic effect of Compound 1 on liver cancer was evaluated in an orthotopic mouse model using Hep3B2.1-7-Luc cell line. Three groups of orthotopic model in BALB/c nude mice were treated with vehicle, Compound 1 at 10 mg/kg, and Compound 1 at 20 mg/kg orally (p.o.) Q3D for a week followed by QD for three weeks. The mean Total Flux (photons/s/10^6) of the mice in vehicle control group reached 1223.01 photons/s/10^6 at day 28 post grouping. The mean Total Flux (photons/s/10^6) was 464.74 and 306.74 for Compound 1 (10 mg/kg) group and Compound 1 (20 mg/kg) group at day 28 post grouping.
# A One-way ANOVA combined with Dunnett post-test was performed to compare the results of serum-derived blood chemistries (including ALT, AST, ALP, TP, ALB, UA, UREA, Glu, TC, TG, Ca, Mg, P, CK, LDH, GLB, A/G and CREA) among vehicle and treatment groups. A nonparametric ANOVA followed by Kruskal-Wallis test was performed to compare serum-derived blood chemistries (including ALT, AST and ALP) among vehicle and treatment groups.
# Human microsomal CL rate = type: in vitro ADME; conditions: human microsomes
# [2] = Pharmacokinetics in liver and tissues after oral administration; type: in vivo, mice
# Description: Compound 1 (20 mg per kg), Compound 5 (10 mg per kg), and pentamidine (20 mg per kg) were tested for their PK. Tissue samples were collected as described above in Example 23. Briefly, blood samples (approximately […]) were collected under light isoflurane anesthesia from retro orbital plexus of mice at 0.5, 1, 3, 8, 48 and 72 hr. Plasma samples were separated by centrifugation at 2,000×g for 6 minutes and stored below −70±10° C. until bioanalysis. Immediately after collection of blood, animals were euthanized using excess CO2 asphyxiation and samples were collected from set of five mice at each time point. Collected tissue samples were immediately dipped and rinsed three times in ice cold PBS (for 5-10 seconds/rinse using ˜5-10 mL fresh PBS in disposable petri dish for each rinse) and dried on blotting paper. Tissue samples were homogenized using ice-cold phosphate buffer saline (pH7.4) and homogenates were stored below −70±10° C. until analysis. Total homogenate volume was three times the tissue weight except for liver samples, total homogenate volume was ten times the liver weight. Bioanalysis process was determined by fit-for-purpose LC-MS/MS method.
# Calibration standards were prepared by spiking the test compound into blank plasma. 10 μL of working calibration standard was spiked into 190 μL of blank Mice Plasma or tissue homogenate to generate linearly spiked calibration standards. Calibrator concentrations were 5,000, 2,000, 1,000, 200, 100, 20, 10, 2 and 1 ng/mL. Calibration standard samples were processed along with the test samples. Twenty-five μL aliquots of plasma or tissue homogenate test samples were treated with 100 μL of acetonitrile containing internal standard (500 ng/mL Glipizide). Samples were vortexed for 5 minutes. Samples were centrifuged for 10 minutes at a speed of 4000 rpm at 4° C. Following centrifugation, 100 μL of clear supernatant was transferred in 96-well plates of and analyzed using LC-MS/MS. Chromatographic separation was achieved using a Kintex Polar column (C18, 100×4.6 mm, 5μ) and column oven temperature 45° C. For compound 1 diHCl the mobile phase A was water with 0.1% formic acid in Acetonitrile; mobile phase B was 10 mM ammonium formate. However, the mobile phase for pentamidine and Compound 5 mobile phase A was water with 0.1% formic acid and mobile phase B acetonitrile with 0.1% formic acid.
# The gradient program for Compound 1 was as follows: 5% B (1-2.40 min), 90% B (2.60-3.00 min), and the initial for B was 90%. The retention rate was 1.47 per minute and the internal standard Glipizide was 1 per 9 minutes. The column was maintained at 45° C. For pentamidine and Compound 5, analysis was performed using 233 MassSpec by AB Sciex API5000 with Turbo Ion Spray interface operating in a positive ionization mode. Quantification was performed using multiple reaction monitoring (MRM) method with the transitions of (m/z) 328 à (m/z) 311 for Compound 5 and (m/z) 548 à (m/z) 366 for Edoxaban (internal standard). While, for pentamidine (m/z) 341 à (m/z) 324 and (m/z) 548 à (m/z) 366 for Verapmil (internal standard).
# The gradient program for Compound 5 was as follows: 10% B (0-0.2 min), 95% B (1.5-2 min), the initial for B was 10% and it stopped at 2.6 mins. The flow rate was 0.5 mL/min. The gradient program for pentamidine was as follows: 10% B (0-0.2 min), 95% B (1.4-2 min), the initial for B was 10% and it stopped at 2.5 mins. The flow rate was 0.5 mL/min.
# [3] = test system: COLO 205-Luc colon cancer tumor cells; conditions: mouse, in vivo
# Description: Approximately 2.0× Luciferase stably expressing colon cancer tumor cells (COLO 205-Luc) cells suspended in 30 μl of DPBS were injected into cecum wall of BALB/c nude mice.
# The animals were assigned into groups using an Excel-based randomization software performing stratified randomization based upon their bioluminescence intensity. Treatment was initiated according to the predetermined regimen as shown in the experimental design table.
# Mice were administered compound 1 at 10 mg/k daily, 20 mg/kg daily, 10 mg/kg twice daily, 20 mg/kg twice daily, or 40 mg/kg daily.
# The major efficacy endpoint was bioluminescence (intensity values and change from baseline). The surgically inoculated mice were weighed and intraperitoneally administered luciferin at a dose of 150 mg/kg. Ten minutes after the luciferin injection, the animals were pre-anesthetized with the mixture gas of oxygen and isoflurane. When the animals were in a complete anesthetic state, the mice were moved into the imaging chamber for bioluminescence measurements with an IVIS (Lumina II) imaging system. The bioluminescence of the whole animal body, including primary and metastatic tumors, was measured and recorded once per week.
# Tumor Growth Inhibition (TGI) was calculated for each group using the formula: TGI (%)=[1−(Ti−T0)/(Vi−V0)]×100; Ti is the average tumor bioluminescence value of a treatment group on a given day, T0 is the average tumor bioluminescence value of the treatment group on day 0, Vi is the average tumor bioluminescence value of the vehicle control group on the same day with Ti, and V0 is the average tumor bioluminescence value of the vehicle group on day 0.
# For comparison among three or more groups, a one-way ANOVA was performed. When a non-significant F-statistics (a ratio of treatment variance to the error variance) was obtained, comparisons between groups were carried out with Dunnett t(2-sided). All data were analyzed using SPSS 17.0. p<0.05 is considered to be statistically significant.
# NCI-H209 = test: CellTiter-Glo luminescent cell viability assay; type: cell-based; conditions: Homo sapiens
# Description: as §1
# NCI-H69 = test: CellTiter-Glo luminescent cell viability assay; type: cell-based; conditions: Homo sapiens
# Description: as §1
structure (smiles),measurement,setting,value
"N=C(N)c1ccc(OCCCCCOc2ccc(C(=N)N)nc2)cc1 [Compound 1, 5-(5-(4-carbamimidoylphenoxy)pentyloxy)picolinimidamide]",IC50,Hep G2,340 nM
same,"tolerability, body weight loss",[1]; 10 mg/kg and 20 mg/kg p.o.,well tolerated in both 10 mg/kg and 20 mg/kg groups with no obvious body weight loss; also recorded: well tolerated at both doses level tested
same,anti-tumor effect compared to vehicle group (Total Flux),[1]; 10 mg/kg p.o.,significant anti-tumor effect at day 8 to day 18 and day 28
same,mean Total Flux,[1]; 10 mg/kg p.o.,464.74 photons/s/10^6
same,Whole liver (with tumor) weights,[1]; 10 mg/kg,1.334 g and 2.415 g and 2.602 g and 2.280 g and 3.035 g and 1.817 g and 2.019 g and 2.311 g
same,Tumor sizes vs vehicle,[1]; 10 mg/kg,no significant difference during the treatment days
same,Tumor sizes (signal intensity) vs vehicle,[1]; 10 mg/kg,significant difference at day 25 and extremely significant difference at day 28
same,anti-tumor effect compared to vehicle group (Total Flux),[1]; 20 mg/kg p.o.,significant anti-tumor effect at day 8 to day 28
same,mean Total Flux,[1]; 20 mg/kg p.o.,306.74 photons/s/10^6
same,in vivo anti-tumor activity (summary),"[1]; 20 mg/kg, day 25 and day 28",significant in vivo anti-tumor activity
same,Whole liver (with tumor) weights,[1]; 20 mg/kg,1.681 g and 2.243 g and 1.645 g and 2.012 g and 1.926 g and 1.610 g and 1.603 g and 2.260 g
same,Tumor sizes vs vehicle,[1]; 20 mg/kg,significant difference at day 28 and extremely significant difference at day 25
same,Tumor sizes (signal intensity) vs vehicle,[1]; 20 mg/kg,extremely significant difference at day 22 to day 28
same,levels of liver injury/damage markers ALT and AST,"[1]; serum, 10 mg/kg and 20 mg/kg","significant reduction in levels of liver injury/damage markers, i.e., ALT and AST, in a dose dependent manner"
same,microsomal CLint,Human microsomal CL rate,13.6 µL/min/mg
same,"Cmax normalized to dose, liver, relative to pentamidine",[2]; 20 mpk p.o. both,~7 folds
same,exposure to the liver vs pentamidine (20 mpk),"[2]; Compound 1 20 mpk, Compound 5 10 mpk, p.o.",greater exposure to the liver than pentamidine
same,half-life vs pentamidine,"[2]; liver, p.o.",higher half-life than pentamidine
same,tissue exposure,"[2]; liver, small intestine, ileum, p.o.",increased exposure in the liver as well as small intestine and ileum
same,exposure to the plasma,"[2]; plasma vs other tissues, p.o.",low in comparison to other tissues
same,deaths and morbidity,[3],no deaths and no morbidity
same,IC50,NCI-H209,1700 nM
same,IC50,NCI-H69,858 nM
